The record followed here is ChEMBL document CHEMBL4229445, “Activity of steroid 4 and derivatives 4a-4f as inhibitors of the enzyme 5α-reductase 1” (Bioorg Med Chem, 2018).

The target in series [1] is T1, 3-oxo-5-alpha-steroid 4-dehydrogenase 1 (Rattus norvegicus, UniProt P24008).
T1 sequence (P24008 whole entry): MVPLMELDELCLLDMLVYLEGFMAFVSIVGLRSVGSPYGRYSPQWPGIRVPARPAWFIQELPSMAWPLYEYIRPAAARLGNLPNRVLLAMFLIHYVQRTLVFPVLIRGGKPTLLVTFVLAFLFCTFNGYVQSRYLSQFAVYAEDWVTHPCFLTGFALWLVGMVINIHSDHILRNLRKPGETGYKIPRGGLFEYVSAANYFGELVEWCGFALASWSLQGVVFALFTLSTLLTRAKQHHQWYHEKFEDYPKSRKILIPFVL
The experiment in a line: Inhibition of rat liver microsomes 5alpha-reductase1 using [1,2,6,7-3H]T as substrate measured after 60 mins by chromatographic method. (In general: Microsomes from liver hold many membrane-bound enzymes, among them those of drug oxidation.)

Series [2] deals with Syrian golden hamster. As to the kind of experiment: Inhibition of testosterone-induced flank organ enlargement in golden hamster assessed as reduction in diameter of pigmented spot at 2 mg/kg, sc administered daily for 6 days measured post last dose by calliper method. In kind it is functional, organism-based. The conditions noted are these: Mesocricetus auratus.
For series [3], the system named is Syrian golden hamster. As to the kind of experiment: Inhibition of testosterone-induced increase in prostate weight in golden hamster at 2 mg/kg, sc administered daily for 6 days measured post last dose. The format is functional, organism-based. The conditions noted are these: Mesocricetus auratus.
The subject of series [4] is Syrian golden hamster. As to the kind of experiment: Inhibition of testosterone-induced increase in seminal vesicle weight in golden hamster at 2 mg/kg, sc administered daily for 6 days measured post last dose. The format is functional, organism-based. Conditions: Mesocricetus auratus.
Series [5] concerns the target T2, 3-oxo-5-alpha-steroid 4-dehydrogenase 2 (Homo sapiens) (UniProt P31213).
T2 sequence (whole entry): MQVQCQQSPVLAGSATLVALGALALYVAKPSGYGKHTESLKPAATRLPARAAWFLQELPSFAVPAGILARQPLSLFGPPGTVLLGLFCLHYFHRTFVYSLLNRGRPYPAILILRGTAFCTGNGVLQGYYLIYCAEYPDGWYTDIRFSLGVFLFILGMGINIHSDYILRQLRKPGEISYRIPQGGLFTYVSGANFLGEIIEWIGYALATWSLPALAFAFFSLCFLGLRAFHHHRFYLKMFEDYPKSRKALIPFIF
As to the kind of experiment: Inhibition of 5alpha-reductase2 (unknown origin).

Series [6] concerns Syrian golden hamster. The experiment in a line: Inhibition of testosterone-induced flank organ enlargement in golden hamster assessed as reduction in diameter of pigmented spot at 1 mg/kg, sc administered daily for 6 days measured post last dose by calliper method. The format is functional, organism-based. Conditions: Mesocricetus auratus.
Series [7] deals with Syrian golden hamster. As to the kind of experiment: Inhibition of testosterone-induced increase in prostate weight in golden hamster at 1 mg/kg, sc administered daily for 6 days measured post last dose. Conditions: Mesocricetus auratus. In kind it is functional, organism-based.
Series [8] relates to Syrian golden hamster. As to the kind of experiment: Inhibition of testosterone-induced increase in seminal vesicle weight in golden hamster at 1 mg/kg, sc administered daily for 6 days measured post last dose. In kind it is functional, organism-based. The conditions noted are these: Mesocricetus auratus.
A short description of series [9]: Drug metabolism in golden hamster plasma assessed as esterase-mediated 21(2-Oxo-ethyl-benzimidazol)-3-ceto, pregnen-16,17-diene formation at 4 mg/kg, sc measured after 60 to 120 mins in presence of testosterone by TLC method. In kind it is ADME, organism-based, Mesocricetus auratus. Conditions: in vivo.
Series [10] can be described thus: Stability of the compound in water. The format is physicochemical. The conditions noted are these: buffer.
Series [11] has as its system Syrian golden hamster. As to the kind of experiment: Inhibition of testosterone-induced flank organ enlargement in golden hamster assessed as diameter of pigmented spot at 2 mg/kg, sc administered daily for 6 days measured post last dose by calliper method. In kind it is functional, Mesocricetus auratus.
Series [12] is described as follows: Drug metabolism in golden hamster plasma assessed as esterase-mediated 21(2-Oxo-ethyl-benzimidazol)-3-ceto, pregnen-16,17-diene formation by measuring retardation factor at 4 mg/kg, sc measured after 30 mins in presence of testosterone by TLC method. The format is ADME, organism-based, Mesocricetus auratus. The conditions noted are these: in vivo, 0.5 h.

The source made the active and inactive calls. The calls are words filed in the database; no cut-off is given here.

Consider `C[C@]12CC[C@H](O)CC1=CC[C@@H]1[C@@H]2CC[C@]2(C)C(n3cnc4ccccc43)=C(C=O)C[C@@H]12`, for which the IC50 in series [1] (read-out: IC50) was determined as 0.291 µM. Moreover, the inhibition entry in the series with Syrian golden hamster [2], in the series with Syrian golden hamster [3] and in the series with Syrian golden hamster [4] was “Active” in each case. Besides, in [5], the inhibition entry is “inactive”.

`CC(C)(C)NC(=O)[C@H]1CC[C@H]2[C@@H]3CC[C@H]4NC(=O)C=C[C@]4(C)[C@H]3CC[C@]12C`: the inhibition result in the series with Syrian golden hamster [6], in the series with Syrian golden hamster [7] and in the series with Syrian golden hamster [8] was “Active” in each case.

In the case of `Cc1ccc(C(=O)O[C@H]2CC[C@@]3(C)C(=CC[C@@H]4[C@@H]3CC[C@]3(C)C(n5cnc6ccccc65)=C(C=O)C[C@@H]43)C2)cc1`, the IC50 result in [1] was “Not Active”. Moreover, the inhibition entry with Syrian golden hamster [2], in the series on Syrian golden hamster [3] and in the series on Syrian golden hamster [4] was “Active” in each case. Besides, the Drug metabolism entry in series [9] is “Metabolite_Detected”. In series [10], the Stability result was “Stable”. The inhibition result in series [5] is “inactive”.

On to `C[C@]12CC[C@H](OC(=O)c3ccc(F)cc3)CC1=CC[C@@H]1[C@@H]2CC[C@]2(C)C(n3cnc4ccccc43)=C(C=O)C[C@@H]12`, for which the IC50 in series [1] (read-out: IC50) stood at 40 µM. For the same compound, in the series with Syrian golden hamster [11], the Activity came to 1.7 mm. For the same compound, the inhibition entry in the series on Syrian golden hamster [3] and in the series on Syrian golden hamster [4] was “Active” throughout. Further, in series [12], the Rf was determined as 0.42. Also, the Stability entry in series [10] is “Unstable”. In addition, the inhibition entry in [5] was “inactive”.

For the compound `C[C@]12CC[C@H](OC(=O)c3ccc(I)cc3)CC1=CC[C@@H]1[C@@H]2CC[C@]2(C)C(n3cnc4ccccc43)=C(C=O)C[C@@H]12`, the IC50 result in series [1] is “Not Active”. In addition, the inhibition result in the series on Syrian golden hamster [2], in the series on Syrian golden hamster [3] and with Syrian golden hamster [4] was “Active” in each case. The Rf in [12] turned out to be 0.42. Further, the Stability result in series [10] is on record as “Stable”. Also, the inhibition entry in [5] was “inactive”.

Turning to `C[C@]12CC[C@H](OC(=O)c3ccccc3)CC1=CC[C@@H]1[C@@H]2CC[C@]2(C)C(n3cnc4ccccc43)=C(C=O)C[C@@H]12`, the IC50 result in [1] is listed as “Not Active”. Also, the inhibition result with Syrian golden hamster [2], with Syrian golden hamster [3] and with Syrian golden hamster [4] was “Active” in each case. Besides, the Drug metabolism result in series [9] is “Metabolite_Detected”. For the same compound, the Stability entry in series [10] is reported as “Stable”. Also, the inhibition result in series [5] is “inactive”.

For `C[C@]12CC[C@H](OC(=O)c3ccc(Cl)cc3)CC1=CC[C@@H]1[C@@H]2CC[C@]2(C)C(n3cnc4ccccc43)=C(C=O)C[C@@H]12`, the half-inhibitory concentration (IC50) in series [1] (read-out: IC50) worked out at 83 µM. The inhibition entry in the series with Syrian golden hamster [2], in the series with Syrian golden hamster [3] and in the series with Syrian golden hamster [4] was “Active” each time. For the same compound, the Rf in series [12] came out at 0.42. The Stability result in series [10] was “Unstable”. The inhibition result in [5] was “inactive”.

Take `C[C@]12CC[C@H](OC(=O)c3ccc(Br)cc3)CC1=CC[C@@H]1[C@@H]2CC[C@]2(C)C(n3cnc4ccccc43)=C(C=O)C[C@@H]12`: the IC50 entry in series [1] is recorded as “Not Active”. The inhibition entry in the series on Syrian golden hamster [2], with Syrian golden hamster [3] and with Syrian golden hamster [4] was “Active” throughout. Further, in series [12], the Rf was determined as 0.42. For the same compound, the Drug metabolism result in [9] is “Metabolite_Detected”. Also, in series [10], the Stability entry is reported as “Stable”. Besides, in series [5], the inhibition result is “inactive”.

Broadly, the IC50 is the concentration at which inhibition is half-maximal.
